Measurements published in BindingDB's records for doi:10.7270/Q2Q52N1X (Vanderbilt Screening Center for GPCRs, Ion Channels and …, 2009).

Target: T1, Solute carrier family 12 member 5 (Homo sapiens, UniProt Q9H2X9)
T1 sequence (Q9H2X9 whole entry): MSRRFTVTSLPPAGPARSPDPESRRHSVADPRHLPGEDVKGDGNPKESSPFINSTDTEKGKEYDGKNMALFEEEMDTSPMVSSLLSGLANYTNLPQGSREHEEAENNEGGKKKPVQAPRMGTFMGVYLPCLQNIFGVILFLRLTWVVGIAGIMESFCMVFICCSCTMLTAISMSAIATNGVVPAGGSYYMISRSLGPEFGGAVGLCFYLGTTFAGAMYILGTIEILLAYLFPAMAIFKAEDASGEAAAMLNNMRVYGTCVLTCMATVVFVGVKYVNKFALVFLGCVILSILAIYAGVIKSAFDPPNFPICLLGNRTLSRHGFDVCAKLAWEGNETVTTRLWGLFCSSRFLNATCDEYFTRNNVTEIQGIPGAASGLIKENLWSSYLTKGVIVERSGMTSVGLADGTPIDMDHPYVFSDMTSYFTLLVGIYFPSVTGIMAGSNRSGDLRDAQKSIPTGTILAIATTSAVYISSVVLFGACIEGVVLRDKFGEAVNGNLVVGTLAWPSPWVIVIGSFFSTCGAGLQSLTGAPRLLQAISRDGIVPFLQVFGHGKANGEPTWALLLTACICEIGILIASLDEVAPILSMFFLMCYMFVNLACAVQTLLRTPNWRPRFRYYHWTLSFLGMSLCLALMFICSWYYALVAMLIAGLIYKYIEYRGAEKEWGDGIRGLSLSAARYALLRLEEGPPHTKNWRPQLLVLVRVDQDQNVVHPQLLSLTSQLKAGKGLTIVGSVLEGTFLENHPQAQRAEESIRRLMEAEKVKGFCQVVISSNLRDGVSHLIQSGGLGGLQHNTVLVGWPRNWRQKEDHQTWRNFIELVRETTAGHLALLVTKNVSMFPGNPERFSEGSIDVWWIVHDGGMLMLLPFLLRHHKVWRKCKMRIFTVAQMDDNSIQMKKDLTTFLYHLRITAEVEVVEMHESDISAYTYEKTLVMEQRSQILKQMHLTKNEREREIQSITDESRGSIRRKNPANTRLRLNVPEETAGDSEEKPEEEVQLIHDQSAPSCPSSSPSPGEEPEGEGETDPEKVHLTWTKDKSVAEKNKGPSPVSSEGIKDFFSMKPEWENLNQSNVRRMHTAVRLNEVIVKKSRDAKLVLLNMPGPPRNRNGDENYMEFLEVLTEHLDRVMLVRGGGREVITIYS
Assay: concentration-response of KCC2 transport modulators – cell-based, HEK293 KCC2, FluoZin-2 fluorescence, dose response (AID 1736)
Conditions: not given

Structure (SMILES)	EC50 [µM]
CCC(c1nnc(SCc2nc3ccccc3s2)n1Cc1ccccc1)N(C)C (stereo unspecified) [1-[5-(1,3-benzothiazol-2-ylmethylsulfanyl)-4-(phenylmethyl)-1,2,4-triazol-3-yl]-N,N-dimethyl-propan-1-amine]	6.62
O=C(OCc1ccccn1)c1ccc(COc2ccccc2Cl)o1 [5-(2-Chloro-phenoxymethyl)-furan-2-carboxylic acid pyridin-2-ylmethyl ester]	6.49
COc1cc(C=NNC(=O)CN(Cc2ccccc2)S(=O)(=O)c2ccc3c(c2)OCCO3)ccc1O [2,3-Dihydro-benzo[1,4]dioxine-6-sulfonic acid benzyl-(4-hydroxy-3-methoxy-benzylidene-hydrazinocarbonylmethyl)-amide]	3.15
Cc1[nH]c2ccccc2c1Cc1nnc(S)o1	1.59
Cc1ccc(S(=O)(=O)N2CCC(=O)N(C(COCc3ccccc3)Cc3ccccc3)CC2)cc1 (stereo unspecified) [1-(4-methylphenyl)sulfonyl-4-(1-phenyl-3-phenylmethoxy-propan-2-yl)-1,4-diazepan-5-one]	1.17
Cc1oc(-c2ccccc2)nc1C[S+]([O-])CC(=O)N1CCc2ccccc2C1 (stereo unspecified) [1-(3,4-dihydro-1H-isoquinolin-2-yl)-2-[(5-methyl-2-phenyl-1,3-oxazol-4-yl)methylsulfinyl]ethanone]	4.86
O=c1[nH]c2ccc(S(=O)(=O)N3CCN(c4ccccc4F)CC3)cc2s1 [6-{[4-(2-fluorophenyl)piperazin-1-yl]sulfonyl}-1,3-benzothiazol-2(3H)-one]	8.21
CC(C)CCNC(=O)COC(=O)/C=C/c1ccc2ccccc2n1 [(E)-3-(2-quinolinyl)-2-propenoic acid [2-(3-methylbutylamino)-2-oxoethyl] ester]	2.75
O=C(NN=Cc1ccc(OCc2ccccc2)cc1)c1cc[n+](Cc2ccccc2)cc1 [1-benzyl-4-({2-[4-(benzyloxy)benzylidene]hydrazino}carbonyl)pyridinium chloride]	563
O=C(CSc1nnnn1-c1ccc(Cl)cc1)N1CCc2ccccc2C1 [2-[1-(4-chlorophenyl)tetrazol-5-yl]sulfanyl-1-(3,4-dihydro-1H-isoquinolin-2-yl)ethanone]	3.26
O=C(CSc1nnc(-c2ccc(F)cc2)o1)N1CCN(C(=O)c2ccco2)CC1 [2-[5-(4-Fluoro-phenyl)-[1,3,4]oxadiazol-2-ylsulfanyl]-1-[4-(furan-2-carbonyl)-piperazin-1-yl]-ethanone]	17.7
Cc1ccc(Nc2nnc(SCC(=O)c3ccc(Br)s3)s2)c(C)c1 [1-(5-bromanylthiophen-2-yl)-2-[[5-[(2,4-dimethylphenyl)amino]-1,3,4-thiadiazol-2-yl]sulfanyl]ethanone]	1.02
Oc1ccccc1CN=Nc1nc2ccccc2o1 [(6E)-6-[(1,3-benzoxazol-2-ylhydrazo)methylidene]-1-cyclohexa-2,4-dienone]	3040
COc1ccc(S(=O)(=O)N2CCC(C(=O)N3CCc4ccccc4C3)CC2)cc1C [2-({1-[(4-methoxy-3-methylphenyl)sulfonyl]-4-piperidinyl}carbonyl)-1,2,3,4-tetrahydroisoquinoline]	14.4
COc1ccc(C(=O)N2CCCC(c3ccccc3)C2)cc1 (stereo unspecified) [(4-methoxyphenyl)-(3-phenyl-1-piperidinyl)methanone]	110
CCOc1[nH]n(-c2ccccc2)c(=O)c1C=Nc1ccc(F)cc1F [(4E)-4-[[[2,4-bis(fluoranyl)phenyl]amino]methylidene]-5-ethoxy-2-phenyl-pyrazol-3-one]	0.0323
O=C(O)c1cc([N+](=O)[O-])ccc1NCc1ccccc1 [2-(benzylamino)-5-nitro-benzoic acid]	4.96
O=C(O)CCn1c(SCc2cccc3ccccc23)nc2ccccc21 [3-[2-(1-naphthalenylmethylthio)-1-benzimidazolyl]propanoic acid]	0.619
Cc1cccc(Nc2nnc(SCC(=O)c3ccc(Br)s3)s2)c1C [1-(5-bromanylthiophen-2-yl)-2-[[5-[(2,3-dimethylphenyl)amino]-1,3,4-thiadiazol-2-yl]sulfanyl]ethanone]	1.49
O=C(Cn1nc2ccccc2n1)NN=Cc1cc(Cl)cc([N+](=O)[O-])c1O [2-(2H-1,2,3-benzotriazol-2-yl)-N'-{5-chloro-2-hydroxy-3-nitrobenzylidene}acetohydrazide]	28.4
CCc1ccc(Nc2nnc(SCc3cc(=O)n4ccsc4n3)s2)cc1 [7-[[5-(4-ethylanilino)-1,3,4-thiadiazol-2-yl]sulfanylmethyl]-[1,3]thiazolo[3,2-a]pyrimidin-5-one]	0.281
CCn1nnnc1SCC(=O)Nc1nc(-c2cccs2)cs1 [2-(1-Ethyl-1H-tetrazol-5-ylsulfanyl)-N-(4-thiophen-2-yl-thiazol-2-yl)-acetamide]	1.97
O=S(=O)(NCc1ccccc1)c1ccc(Cl)c(S(=O)(=O)NCc2ccccc2)c1 [1-N,3-N-dibenzyl-4-chlorobenzene-1,3-disulfonamide]	2.11
S=C(NCCc1ccccc1)NN=Cc1cccc(Cl)c1Cl [1-[(2,3-dichlorobenzylidene)amino]-3-phenethyl-thiourea]	7.78

The remaining lines, values ahead:

EC50 [µM]	Structure (SMILES)
31	O=C(CSc1ccc(-c2ccccc2)nn1)Nc1ccc2c(c1)OCCO2 [MLS000724887]
7.66	CCCC1=NN2C(=N)/C(=C\c3cc(C)n(-c4cc(C)cc(C)c4)c3C)C(=O)N=C2S1 [MLS000588586]
7.12	Cn1c(C(=O)NCCCN2CCN(c3ccccc3F)CC2)cc2c(=O)n(C)c3ccccc3c21 [MLS000118127]
1.56	CC(NNC(=O)c1ccc(Br)cc1)=C1C(=O)c2ccccc2C1=O [SMR000116009]
0.806	O=C(NNc1nc(-c2ccc(F)cc2)cs1)c1ccccc1 [MLS000763429]
5.16	CSCCC(=O)N1CCCC(CNC(=O)c2ccc(-c3ccccc3)cc2)C1 (stereo unspecified) [MLS000733867]
9.9	O=C(NCc1cccs1)c1nc2c(nnn2Cc2ccc(F)cc2)c(=O)[nH]1 [MLS000074753]
9.45	O=C(CSc1ncccc1-c1nc2ccccc2[nH]1)N1CCN(c2ccccc2F)CC1 [MLS000033700]
3.93	Cc1ccc(C(=O)Nc2nc(=O)n(C(=O)c3ccccc3Cl)s2)cc1 [MLS000540480]
4.09	Cc1ccc2c(c1)nnn2C1CCN(S(=O)(=O)c2cccc(S(=O)(=O)N(C)C)c2)CC1 [MLS000033642]

Same assay, conditions: inactive by the depositor's call

Structure (SMILES)	EC50 [µM]
CCOc1ccc(Nc2nnc(S)s2)cc1 [5-(4-ethoxyanilino)-3H-1,3,4-thiadiazole-2-thione]	0.0465
COc1ccc(S(=O)(=O)N(CCC(=O)O)Cc2ccccc2)cc1 [3-[(4-methoxyphenyl)sulfonyl-(phenylmethyl)amino]propanoic acid]	6.36
COc1cc(C)c(C)cc1S(=O)(=O)N1CCN(Cc2ccccc2)CC1 [1-(2-methoxy-4,5-dimethyl-phenyl)sulfonyl-4-(phenylmethyl)piperazine]	33.3
O=C(CN1C(=O)NC(Cc2ccccc2)C1=O)NC(=O)NC1CCCCC1 (stereo unspecified) [2-(4-benzyl-2,5-diketo-imidazolidin-1-yl)-N-(cyclohexylcarbamoyl)acetamide]	69.9

The remaining lines, values ahead:

EC50 [µM]	Structure (SMILES)
34.4	COc1ccc(CN(C(=O)c2ccc(-c3ccccc3)[nH]2)C(C(=O)NC(C)(C)C)c2ccncc2)cc1 (stereo unspecified) [SMR000279859]
2270	CN(CC(=O)N1CC(=O)N(CCc2ccccc2)C(=O)C1)S(=O)(=O)c1cccc2nsnc12 [MLS000095099]
67	CC(=O)Nc1ccc(S(=O)(=O)N2CCN(C(C)CCc3ccccc3)CC2)cc1 (stereo unspecified) [MLS000110551]
